Reference: US10526316B2, “Quinoxaline and pyridopyrazine derivatives as PI3Kβ inhibitors” (Janssen Pharmaceutica NV, priority 2015, dated 2020)
Like-named read-outs stand apart in the source and are kept apart here.

Columns and labels:
[1] = tested on: Akt phosphorylated at Ser473 in PC-3 cells; assay: Cellular assay: phosphorylation of Akt at Ser473 in PC-3 cells (MSD ELISA); assay type: cell-based; details: PC-3 cells, 60 min compound incubation, MSD ELISA, read-out: IC50 pAkt_S473
Description: (§1) Cellular activity of PI3KP inhibitors was determined by quantifying the phosphorylation of Akt in PC-3 cells. Akt phosphorylated at Ser473 and Thr308 were measured using an enzyme-linked immunosorbent assay (ELISA; Meso Scale Discovery (MSD), Gaithersburg. Md.) and specific primary antibodies from MSD.
(§2) On day 2, compound or DMSO (0.3%) was added and cells were further incubated for 60 min at 37° C. 5% CO2 in a total volume of 100 μl of medium.
(§3) The phosphoprotein assay was executed according to vendor instructions in the Phospho-Akt (Ser473) Assay Whole Cell Lysate Kit (MSD # K15100D-3) and the Phospho-Akt (Thr308) Assay Whole Cell Lysate Kit (MSD # K151DYD-3) using the lysis, blocking and wash buffer provided.
(§4) Briefly, at the end of the cell treatment period, media were removed by aspiration and adherent cells were lysed in 50 μl ice-cold lysis buffer. MSD plates are supplied pre-coated with capture antibodies for Phospho-Akt (Ser473 and Thr308). After blocking, lysates from tissue culture plates were added and plates were washed. Then, a solution containing the detection antibody (anti-total Akt conjugated with an electrochemiluminescent compound-MSD Sulfo-tag label) was added. The signals were detected using an MSD SECTOR Imager 6000 and are proportional to the phospho-Akt titres.
(§5) Data were processed. […] From these concentration-response curves, the IC50 values were calculated. Five concentrations were used for curve fitting.

PI3Kδ = target: T1, PI3Kδ (Homo sapiens, UniProt O00329); assay: Enzyme binding assay (KINOMEscan, DiscoveRx); details: PIK3Cδ_h
T1 construct: purchased DiscoveRx Corporation, San Diego (contract service, KINOMEscan)
T1 sequence (O00329 1-1044): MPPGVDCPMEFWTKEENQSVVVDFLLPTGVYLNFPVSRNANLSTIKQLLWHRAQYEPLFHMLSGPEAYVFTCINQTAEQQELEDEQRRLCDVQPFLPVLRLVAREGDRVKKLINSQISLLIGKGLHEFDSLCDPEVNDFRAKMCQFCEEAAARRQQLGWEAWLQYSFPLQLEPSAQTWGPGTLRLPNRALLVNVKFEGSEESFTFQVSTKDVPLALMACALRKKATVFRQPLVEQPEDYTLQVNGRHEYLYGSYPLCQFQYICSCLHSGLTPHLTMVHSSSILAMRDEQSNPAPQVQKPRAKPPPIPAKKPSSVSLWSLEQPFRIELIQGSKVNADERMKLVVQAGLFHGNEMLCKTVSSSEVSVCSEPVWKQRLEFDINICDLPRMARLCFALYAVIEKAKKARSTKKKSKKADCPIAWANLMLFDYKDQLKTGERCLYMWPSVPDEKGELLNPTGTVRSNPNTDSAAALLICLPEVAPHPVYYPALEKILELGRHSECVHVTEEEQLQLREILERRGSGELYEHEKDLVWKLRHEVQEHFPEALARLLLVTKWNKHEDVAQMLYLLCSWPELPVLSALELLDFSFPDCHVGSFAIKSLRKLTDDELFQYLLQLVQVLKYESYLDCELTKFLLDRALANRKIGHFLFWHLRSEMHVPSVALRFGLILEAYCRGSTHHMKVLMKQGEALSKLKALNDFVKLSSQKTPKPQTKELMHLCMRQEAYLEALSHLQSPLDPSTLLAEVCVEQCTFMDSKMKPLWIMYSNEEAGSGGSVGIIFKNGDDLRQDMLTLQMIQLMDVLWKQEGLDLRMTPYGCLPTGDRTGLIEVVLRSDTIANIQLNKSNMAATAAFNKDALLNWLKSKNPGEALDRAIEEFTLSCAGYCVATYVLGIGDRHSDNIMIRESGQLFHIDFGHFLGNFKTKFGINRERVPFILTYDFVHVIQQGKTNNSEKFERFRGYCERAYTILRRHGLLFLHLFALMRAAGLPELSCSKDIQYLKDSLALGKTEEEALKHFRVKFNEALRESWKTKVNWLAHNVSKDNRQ
Description: (§6) Enzyme Binding Assays (KINOMEscan®)
(§7) Kinase enzyme binding affinities of compounds disclosed herein were determined using the KINOMEscan technology performed by DiscoveRx Corporation, San Diego, Calif., USA (www.kinomescan.com).

[2] = tested on: Akt phosphorylated at Thr308 in PC-3 cells; assay: Cellular assay: phosphorylation of Akt at Thr308 in PC-3 cells (MSD ELISA); assay type: cell-based; details: PC-3 cells, 60 min compound incubation, MSD ELISA, read-out: IC50 pAkt_Thr308
Description: as §1, §2, §3, §4, §5

PI3Kβ = target: T2, PI3Kβ (Homo sapiens, UniProt P42338); assay: Enzyme binding assay (KINOMEscan, DiscoveRx)
T2 construct: purchased DiscoveRx Corporation, San Diego (contract service, KINOMEscan)
T2 sequence (P42338 whole entry): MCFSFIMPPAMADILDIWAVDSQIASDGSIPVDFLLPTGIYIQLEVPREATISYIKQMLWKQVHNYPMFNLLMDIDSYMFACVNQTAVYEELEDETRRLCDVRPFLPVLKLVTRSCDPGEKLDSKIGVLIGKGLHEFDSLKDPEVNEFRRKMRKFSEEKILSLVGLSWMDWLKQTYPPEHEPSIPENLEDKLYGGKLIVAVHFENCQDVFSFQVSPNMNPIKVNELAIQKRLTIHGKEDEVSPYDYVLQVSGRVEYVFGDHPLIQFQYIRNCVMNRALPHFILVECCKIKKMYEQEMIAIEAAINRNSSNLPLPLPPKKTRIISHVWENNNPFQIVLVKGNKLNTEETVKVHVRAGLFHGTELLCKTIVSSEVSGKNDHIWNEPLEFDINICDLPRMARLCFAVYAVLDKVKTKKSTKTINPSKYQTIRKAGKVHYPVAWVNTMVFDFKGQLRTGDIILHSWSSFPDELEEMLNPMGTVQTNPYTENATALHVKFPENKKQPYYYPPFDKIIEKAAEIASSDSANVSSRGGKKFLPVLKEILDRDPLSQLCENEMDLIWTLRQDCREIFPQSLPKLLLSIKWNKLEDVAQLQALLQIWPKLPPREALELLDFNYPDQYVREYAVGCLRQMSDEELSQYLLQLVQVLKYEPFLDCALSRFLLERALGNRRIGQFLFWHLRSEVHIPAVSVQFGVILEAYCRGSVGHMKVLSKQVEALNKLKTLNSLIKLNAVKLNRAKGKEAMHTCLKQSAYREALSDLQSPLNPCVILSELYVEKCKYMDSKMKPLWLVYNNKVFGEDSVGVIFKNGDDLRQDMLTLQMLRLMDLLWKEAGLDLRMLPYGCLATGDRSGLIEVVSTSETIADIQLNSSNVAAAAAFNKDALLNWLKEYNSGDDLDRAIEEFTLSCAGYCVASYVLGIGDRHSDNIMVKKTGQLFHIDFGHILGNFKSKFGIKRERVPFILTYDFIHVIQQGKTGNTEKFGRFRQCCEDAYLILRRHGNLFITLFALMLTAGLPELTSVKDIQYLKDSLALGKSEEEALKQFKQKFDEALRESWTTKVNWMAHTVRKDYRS
Description: as §6
Kinase enzyme binding affinities of compounds disclosed herein were determined using the KINOMEscan technology performed by DiscoveRx Corporation, San Diego, Calif., USA (www.kinomescan.com). Table A reports the obtained Kd values (nM), with the Kd being the inhibitor binding constant: […]

kinase enzymes [3] = target: T3, kinase enzymes (Homo sapiens, UniProt P42336); assay: Enzyme binding assay (KINOMEscan, DiscoveRx), further kinases of Table A; details: PIK3Cα_h
T3 construct: purchased DiscoveRx Corporation, San Diego (contract service, KINOMEscan)
T3 sequence (P42336 whole entry): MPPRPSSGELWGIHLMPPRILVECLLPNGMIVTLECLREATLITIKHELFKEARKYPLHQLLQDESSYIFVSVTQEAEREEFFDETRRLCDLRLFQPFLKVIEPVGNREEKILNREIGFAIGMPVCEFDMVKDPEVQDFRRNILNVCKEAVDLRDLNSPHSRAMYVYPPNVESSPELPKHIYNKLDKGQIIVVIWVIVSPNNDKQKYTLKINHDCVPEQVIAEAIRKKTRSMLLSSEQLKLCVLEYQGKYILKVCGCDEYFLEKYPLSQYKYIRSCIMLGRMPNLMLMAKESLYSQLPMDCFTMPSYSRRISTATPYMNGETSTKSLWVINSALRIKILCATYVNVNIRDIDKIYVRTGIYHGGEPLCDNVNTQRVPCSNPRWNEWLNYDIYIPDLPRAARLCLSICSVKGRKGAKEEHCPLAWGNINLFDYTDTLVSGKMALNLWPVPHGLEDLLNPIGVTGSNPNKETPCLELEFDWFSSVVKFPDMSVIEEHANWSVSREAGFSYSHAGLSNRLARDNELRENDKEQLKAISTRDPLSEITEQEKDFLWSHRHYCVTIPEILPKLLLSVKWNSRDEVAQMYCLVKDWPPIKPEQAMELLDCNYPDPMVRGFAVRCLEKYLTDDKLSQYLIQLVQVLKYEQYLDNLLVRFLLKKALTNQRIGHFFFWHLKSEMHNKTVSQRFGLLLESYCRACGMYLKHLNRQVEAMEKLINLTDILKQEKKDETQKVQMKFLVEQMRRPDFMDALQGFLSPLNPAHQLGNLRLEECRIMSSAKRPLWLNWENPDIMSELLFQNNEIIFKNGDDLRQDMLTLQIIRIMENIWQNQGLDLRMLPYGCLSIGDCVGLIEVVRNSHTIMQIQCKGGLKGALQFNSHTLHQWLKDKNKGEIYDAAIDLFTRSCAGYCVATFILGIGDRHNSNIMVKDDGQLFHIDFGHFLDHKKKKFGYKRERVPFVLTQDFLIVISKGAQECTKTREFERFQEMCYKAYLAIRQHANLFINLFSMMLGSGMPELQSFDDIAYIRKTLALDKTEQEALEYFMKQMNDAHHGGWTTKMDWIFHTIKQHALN
Description: as §6, §7

kinase enzymes [4] = target: T4, kinase enzymes (Homo sapiens, UniProt P42345); assay: as above; details: MTOR_h
T4 construct: purchased DiscoveRx Corporation, San Diego (contract service, KINOMEscan)
Description: as §6, §7

kinase enzymes [5] = target: T5, kinase enzymes (Homo sapiens, UniProt P48736); assay: as above; details: PIK3Cγ_h
T5 construct: purchased DiscoveRx Corporation, San Diego (contract service, KINOMEscan)
T5 sequence (P48736 whole entry): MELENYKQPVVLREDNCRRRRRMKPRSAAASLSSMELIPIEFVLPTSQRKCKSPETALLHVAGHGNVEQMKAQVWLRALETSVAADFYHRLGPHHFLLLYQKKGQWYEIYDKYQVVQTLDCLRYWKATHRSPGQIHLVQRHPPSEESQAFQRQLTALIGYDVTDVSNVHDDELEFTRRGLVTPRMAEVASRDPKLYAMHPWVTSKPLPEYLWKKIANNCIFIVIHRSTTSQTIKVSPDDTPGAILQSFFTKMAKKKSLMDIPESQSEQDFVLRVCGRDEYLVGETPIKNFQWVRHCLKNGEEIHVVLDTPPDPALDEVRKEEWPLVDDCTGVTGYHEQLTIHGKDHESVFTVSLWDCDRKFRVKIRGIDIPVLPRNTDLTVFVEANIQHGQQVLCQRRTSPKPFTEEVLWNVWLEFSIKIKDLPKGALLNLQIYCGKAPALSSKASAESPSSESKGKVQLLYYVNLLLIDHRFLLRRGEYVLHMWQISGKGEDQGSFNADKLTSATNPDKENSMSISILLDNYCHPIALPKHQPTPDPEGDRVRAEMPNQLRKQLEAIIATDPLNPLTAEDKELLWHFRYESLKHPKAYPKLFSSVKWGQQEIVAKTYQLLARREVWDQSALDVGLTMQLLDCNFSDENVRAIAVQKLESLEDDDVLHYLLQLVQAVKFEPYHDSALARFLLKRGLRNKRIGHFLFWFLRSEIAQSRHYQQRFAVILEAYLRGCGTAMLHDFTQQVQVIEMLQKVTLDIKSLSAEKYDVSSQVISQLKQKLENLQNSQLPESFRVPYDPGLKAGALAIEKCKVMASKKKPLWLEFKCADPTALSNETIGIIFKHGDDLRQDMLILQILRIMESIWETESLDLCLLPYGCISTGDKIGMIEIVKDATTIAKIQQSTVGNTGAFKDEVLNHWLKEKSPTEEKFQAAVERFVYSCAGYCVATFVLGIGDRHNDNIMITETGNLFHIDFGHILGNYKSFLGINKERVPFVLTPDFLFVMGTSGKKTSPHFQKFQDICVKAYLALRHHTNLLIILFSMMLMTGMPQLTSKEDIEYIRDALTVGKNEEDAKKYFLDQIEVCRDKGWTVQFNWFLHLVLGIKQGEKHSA
Description: as §6, §7

[6] = PIK3Cβ_h, read-out: Kd PIK3Cβ_h

IC50 ([1]; Homo sapiens, PC-3, 1 h) [nM] | Kd (PI3Kδ) [nM] | IC50 ([2]; Homo sapiens, PC-3, 1 h) [nM] | Kd (PI3Kβ; [6]) [nM] | Kd (kinase enzymes [3]) [nM] | Kd (kinase enzymes [4]) [nM] | Kd (kinase enzymes [5]) [nM] | Structure (SMILES) | IC50 [1] [nM] | IC50 [2] [nM] | Kd (PI3Kβ; Kd PIK3Cβ_h) [nM] | Kd (PI3Kβ; read-out: Kd PIK3Cβ_h) [nM]
49 | – | 44 | – | – | – | – | C[C@@H](Nc1cccc(F)c1)c1cc(C(=O)NCCO)cc2ncc(N3CCOCC3)nc12 [Compound 117] | – | – | – | –
– | – | – | 52 | – | > 30200 | – | COC(=O)c1cc(C(C)Nc2cc(F)cc(Cl)c2)c2nc(N3CCOCC3)cnc2c1 (stereo not drawn) [Compound 264] | > 513 | – | – | –
– | 2820 | – | 407 | 550 | 10200 | 513 | CN(Cc1cc(F)cc(F)c1)c1cc(C(=O)O)cc2ncc(N3CCOCC3)nc12 [Compound 291] | – | – | – | –
– | 110 | 20 | 0.3 | 1860 | > 30200 | 1950 | CN[C@H]1CCN(C(=O)c2cc(C(C)Nc3cc(F)c(F)c(F)c3)c3nc(N4CCOCC4)cnc3c2)C1 (stereo partly drawn) [Compound 297] | – | – | – | –
– | 1000 | – | 9 | 3800 | 16600 | 26900 | CC(C)NCCNC(=O)c1cc(NCc2cc(F)cc(F)c2)c2nc(N3CCOCC3)cnc2c1 [Compound 342] | – | – | – | –
389 | – | 178 | 22 | 2190 | > 10000 | – | Cc1ccc(F)cc1CNc1cc(C(=O)NCCO)cc2ncc(N3CCOCC3)nc12 [Compound 343] | – | – | – | –
– | 1700 | – | 21 | 2510 | > 30200 | 2140 | O=C(c1cc(NCc2cc(F)cc(F)c2)c2nc(N3CCOCC3)cnc2c1)N1CCCNCC1 [Compound 351] | – | – | – | –
– | 7240 | – | 1050 | 9120 | 19100 | – | CNCCNC(=O)c1cc(C(C)Oc2ccc(Cl)c(F)c2)c2nc(N3CCOCC3)cnc2c1 (stereo not drawn) [Compound 380a] | – | – | – | –
– | 3240 | – | 78 | 16600 | > 30200 | 22400 | CC(C)NCCN(C)C(=O)c1cc(N(C)Cc2cc(F)cc(F)c2)c2nc(N3CCOCC3)cnc2c1 [Compound 390] | – | – | – | –

Structure (SMILES) | IC50 ([1]; Homo sapiens, PC-3, 1 h) [nM] | Kd (PI3Kδ) [nM] | IC50 ([2]; Homo sapiens, PC-3, 1 h) [nM] | Kd (PI3Kβ; [6]) [nM] | Kd (kinase enzymes [3]) [nM] | Kd (kinase enzymes [4]) [nM] | Kd (kinase enzymes [5]) [nM] | IC50 [1] [nM] | IC50 [2] [nM] | Kd (PI3Kβ; Kd PIK3Cβ_h) [nM] | Kd (PI3Kβ; read-out: Kd PIK3Cβ_h) [nM]
CN(C)C(=O)c1cc([C@@H]2CCCN2c2cc(F)cc(F)c2)c2nc(N3CCOCC3)cnc2c1 [Compound 2] | > 513 | 16400 | > 513 | 1090 | 12300 | – | – | – | – | – | –
C[C@@H](Nc1cc(F)cc(F)c1)c1cc(C(=O)NCCN(C)C)cc2ncc(N3CCOCC3)nc12 [Compound 184a] | – | – | – | – | 806 | 21900 | 1480 | 3 | 2 | 0.1 | –
C[C@@H](Nc1cc(F)cc(F)c1)c1cc(C(=O)NCCN(C)C)cc2ncc(N3CCOCC3)nc12 [Compound 184b] | – | – | – | – | 589 | 20000 | 1100 | 3 | 2 | – | 0.1
C[C@@H](Nc1cc(F)cc(F)c1)c1cc(C(=O)NCCN(C)C)cc2ncc(N3CCOCC3)nc12 [Compound 184c] | – | – | – | – | 829 | 24000 | 1270 | 4 | 2 | – | 0.1
